Measured values published in PubChem BioAssay AID330 (DTP/NCI, 2004).
Several values for one entry are separate records, joined by “and”; a condition that tells them apart may be missing. Equal entries are not always repeated. Toxic doses and inconclusive results are not listed.

Tested on: P388 leukemia ip, CD2F1 mice, survival T/C
Experiment: NCI In Vivo Anticancer Drug Screen. Data for tumor model P388 Leukemia (intraperitoneal) in CD2F1 (CDF1) mice
Settings: endpoint: median survival time, higher = longer survival
How it was run: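 Mice carrying the transplanted tumor received test compound or vehicle. Survival was recorded in each group, and the value is the treated-group measurement divided by that of the vehicle-treated control group.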

[1] = dose: 12.5 mg/kg/injection, schedule: Q01DX009 (ip), vehicle: saline
[2] = dose: 25.0 mg/kg/injection, schedule: Q01DX009 (ip), vehicle: saline
[3] = dose: 50.0 mg/kg/injection, schedule: Q01DX009 (ip), vehicle: saline
[4] = dose: 100.0 mg/kg/injection, schedule: Q01DX009 (ip), vehicle: saline with Tween-80
[5] = dose: 200.0 mg/kg/injection, schedule: Q01DX009 (ip), vehicle: saline with Tween-80
[6] = dose: 60.0 mg/kg/injection, schedule: Q01DX005 (ip), vehicle: saline
[7] = dose: 50.0 mg/kg/injection, schedule: Q01DX005 (ip), vehicle: Klucel (hydroxypropylcellulose) (HPC)
[8] = dose: 100.0 mg/kg/injection, schedule: Q01DX005 (ip), vehicle: Klucel (hydroxypropylcellulose) (HPC)
[9] = dose: 200.0 mg/kg/injection, schedule: Q01DX005 (ip), vehicle: Klucel (hydroxypropylcellulose) (HPC)
[10] = dose: 60.0 mg/kg/injection, schedule: Q01DX005 (ip), vehicle: Klucel (hydroxypropylcellulose) (HPC)
[11] = dose: 120.0 mg/kg/injection, schedule: Q01DX005 (ip), vehicle: Klucel (hydroxypropylcellulose) (HPC)
[12] = dose: 240.0 mg/kg/injection, schedule: Q01DX005 (ip), vehicle: Klucel (hydroxypropylcellulose) (HPC)
[13] = dose: 25.0 mg/kg/injection, schedule: Q01DX009 (ip), vehicle: saline with Tween-80
[14] = dose: 50.0 mg/kg/injection, schedule: Q01DX009 (ip), vehicle: saline with Tween-80
[15] = dose: 100.0 mg/kg/injection, schedule: Q01DX009 (ip), vehicle: saline
[16] = dose: 200.0 mg/kg/injection, schedule: Q01DX009 (ip), vehicle: saline
[17] = dose: 100.0 mg/kg/injection, schedule: Q04DX003 (ip), vehicle: saline with Tween-80

SMILES: O=S(OC(c1ccccc1)(C(F)(F)F)C(F)(F)F)OC(c1ccccc1)(C(F)(F)F)C(F)(F)F
- T/C (dose: 32.0 mg/kg/injection, schedule: Q01DX009 (ip), vehicle: Klucel (hydroxypropylcellulose) (HPC)): 97 % of control
- T/C (dose: 64.0 mg/kg/injection, schedule: Q01DX009 (ip), vehicle: Klucel (hydroxypropylcellulose) (HPC)): 101 % of control
- T/C (dose: 128.0 mg/kg/injection, schedule: Q01DX009 (ip), vehicle: Klucel (hydroxypropylcellulose) (HPC)): 101 % of control

SMILES: NC(=S)N/N=C\C(CC(O)C(O)CO)=N\NC(N)=S (centres undefined)
- T/C (dose: 50.0 mg/kg/injection, schedule: Q01DX005 (ip), vehicle: saline with Tween-80): 89 % of control
- T/C (dose: 100.0 mg/kg/injection, schedule: Q01DX005 (ip), vehicle: saline with Tween-80): 95 % of control
- T/C (dose: 200.0 mg/kg/injection, schedule: Q01DX005 (ip), vehicle: saline with Tween-80): 98 % of control

SMILES: CCCCCCCCCCCCCCCCCCCC[N+]1([O-])CCOCC1
- T/C (dose: 3.12 mg/kg/injection, schedule: Q01DX009 (ip), vehicle: saline): 101 % of control
- T/C (dose: 6.25 mg/kg/injection, schedule: Q01DX009 (ip), vehicle: saline): 87 % of control
- T/C [1]: 87 % of control and 94 % of control
- T/C [2]: 94 % of control
- T/C [3]: 90 % of control and 92 % of control

SMILES: CCOC(=O)C(=CNc1ccccn1)C(=O)OCC
- T/C [4]: 95 % of control
- T/C [5]: 100 % of control
- T/C (dose: 400.0 mg/kg/injection, schedule: Q01DX009 (ip), vehicle: saline with Tween-80): 113 % of control

SMILES: O=C(N1CCOCC1)C12OC3CC(CC(C3)O1)O2
- T/C [6]: 102 % of control
- T/C (dose: 120.0 mg/kg/injection, schedule: Q01DX005 (ip), vehicle: saline): 104 % of control
- T/C (dose: 240.0 mg/kg/injection, schedule: Q01DX005 (ip), vehicle: saline): 105 % of control

SMILES: Cc1ccc(C(=O)CCN(C)C)c(C)c1
- T/C (dose: 15.0 mg/kg/injection, schedule: Q01DX005 (ip), vehicle: saline): 106 % of control
- T/C (dose: 30.0 mg/kg/injection, schedule: Q01DX005 (ip), vehicle: saline): 100 % of control
- T/C [6]: 89 % of control and 97 % of control

SMILES: COC(CN(Cc1cccs1)S(=O)(=O)c1ccc(C)cc1)OC
- T/C [7]: 94 % of control
- T/C [8]: 94 % of control
- T/C [9]: 99 % of control

SMILES: COc1ccc(/C=C2/C(=O)N(c3ccccc3)N=C2C)cc1
- T/C [10]: 107 % of control
- T/C [11]: 104 % of control
- T/C [12]: 107 % of control

SMILES: O=C(NO)c1cc(O)c(O)c(O)c1
- T/C (dose: 50.0 mg/kg/injection, schedule: Q01DX005 (ip), vehicle: distilled water + Tween-80): 121 % of control
- T/C (dose: 100.0 mg/kg/injection, schedule: Q01DX009 (ip), vehicle: distilled water + Tween-80): 168 % of control
- T/C (dose: 200.0 mg/kg/injection, schedule: Q01DX005 (ip), vehicle: distilled water + Tween-80): 155 % of control
- T/C (dose: 200.0 mg/kg/injection, schedule: Q01DX009 (ip), vehicle: distilled water + Tween-80): 197 % of control

SMILES: NC(=S)c1sc(-c2ccccc2)cc1N
- T/C [10]: 108 % of control
- T/C [11]: 106 % of control
- T/C [12]: 104 % of control

SMILES: Cn1cnc([N+](=O)[O-])c1Sc1ncccn1
- T/C [13]: 106 % of control
- T/C [2]: 98 % of control
- T/C [14]: 98 % of control
- T/C [3]: 104 % of control and 108 % of control
- T/C [4]: 100 % of control
- T/C [15]: 108 % of control and 112 % of control
- T/C [5]: 106 % of control
- T/C [16]: 114 % of control and 122 % of control

SMILES: CN(N=O)C(=O)Nc1ccc(C(=O)O)cc1
- T/C [13]: 181 % of control
- T/C (dose: 25.0 mg/kg/injection, schedule: Q04DX003 (ip), vehicle: saline with Tween-80): 155 % of control
- T/C [14]: 181 % of control
- T/C (dose: 50.0 mg/kg/injection, schedule: Q04DX003 (ip), vehicle: saline with Tween-80): 180 % of control
- T/C (dose: 66.0 mg/kg/injection, schedule: Q04DX003 (ip), vehicle: saline with Tween-80): 159 % of control
- T/C [17]: 172 % of control and 200 % of control

SMILES: Cc1ccc(S(=O)(=O)N/N=C(\Cc2ccccc2)c2ccc(Br)cc2)cc1
- T/C [14]: 99 % of control
- T/C [4]: 99 % of control
- T/C [15]: 98 % of control
- T/C [5]: 90 % of control
- T/C [16]: 98 % of control

SMILES: CSC(=S)N(C)N
- T/C [17]: 111 % of control
- T/C (dose: 200.0 mg/kg/injection, schedule: Q04DX003 (ip), vehicle: saline with Tween-80): 105 % of control
- T/C (dose: 400.0 mg/kg/injection, schedule: Q04DX003 (ip), vehicle: saline with Tween-80): 100 % of control

SMILES: COC(=O)CN1C(=O)c2cccc3cc([N+](=O)[O-])cc(c23)C1=O
- T/C (dose: 60.0 mg/kg/injection, schedule: Q01DX005 (ip), vehicle: saline with Tween-80): 100 % of control
- T/C (dose: 120.0 mg/kg/injection, schedule: Q01DX005 (ip), vehicle: saline with Tween-80): 98 % of control
- T/C (dose: 240.0 mg/kg/injection, schedule: Q01DX005 (ip), vehicle: saline with Tween-80): 90 % of control

SMILES: CCCCCCCC(=O)NC(CCSC)C(=O)O (centres undefined)
- T/C [7]: 107 % of control
- T/C [8]: 88 % of control
- T/C [9]: 104 % of control

SMILES: COc1ccc(Cl)c2c(=O)c3ccc4c(c3[nH]c12)C(=O)c1ccccc1C4=O
- T/C [10]: 96 % of control
- T/C [11]: 91 % of control
- T/C [12]: 86 % of control

SMILES: O=C(c1ccc(-c2ccccc2)cc1)C1CC1c1ccccc1 (centres undefined)
- T/C (dose: 25.0 mg/kg/injection, schedule: Q01DX001 (ip), vehicle: saline sonified): 109 % of control
- T/C (dose: 50.0 mg/kg/injection, schedule: Q01DX001 (ip), vehicle: saline sonified): 90 % of control
- T/C (dose: 100.0 mg/kg/injection, schedule: Q01DX001 (ip), vehicle: saline sonified): 90 % of control

SMILES: Cc1ccc2ccc3ccc(CBr)nc3c2n1
- T/C (dose: 3.12 micromoles/kg, schedule: Q01DX005 (ip), vehicle: other): 110 % of control
- T/C (dose: 6.25 micromoles/kg, schedule: Q01DX005 (ip), vehicle: other): 99 % of control
- T/C (dose: 12.0 micromoles/kg, schedule: Q01DX005 (ip), vehicle: other): 111 % of control

SMILES: Cc1c(C(=O)c2ccc3c(c2)OCO3)ccc2c1OCO2
- T/C [7]: 105 % of control
- T/C [8]: 105 % of control
- T/C [9]: 98 % of control

SMILES: C/C=C(\C)C(=O)O[C@@H]1[C@H]2C(C)=CC(=O)[C@@H](O)[C@]2(C)[C@H]2[C@@]3(O)OC[C@@]24[C@@H]1OC(=O)C[C@H]4[C@@H](C)[C@H]3O
- T/C (dose: 0.25 mg/kg/injection, schedule: Q01DX009 (ip), vehicle: other): 111 % of control
- T/C (dose: 0.6 mg/kg/injection, schedule: Q01DX009 (ip), vehicle: other): 163 % of control

SMILES: CCCCN(CCCC)CCNc1ccc(C)c2sc3ccccc3c(=O)c12
- T/C [1]: 100 % of control
- T/C [2]: 102 % of control
- T/C [3]: 102 % of control
- T/C [15]: 100 % of control

SMILES: O=c1[nH]cnc2c1CCc1ccccc1-2
- T/C (dose: 100.0 mg/kg/injection, schedule: Q04DX002 (ip), vehicle: saline with Tween-80): 93 % of control
- T/C (dose: 200.0 mg/kg/injection, schedule: Q04DX002 (ip), vehicle: saline with Tween-80): 100 % of control
- T/C (dose: 400.0 mg/kg/injection, schedule: Q04DX002 (ip), vehicle: saline with Tween-80): 102 % of control

SMILES: NC(=O)NC1(C(=O)O)CCCC1
- T/C (dose: 25.0 mg/kg/injection, schedule: Q01DX009 (ip), vehicle: Klucel (hydroxypropylcellulose) (HPC)): 102 % of control
- T/C (dose: 50.0 mg/kg/injection, schedule: Q01DX009 (ip), vehicle: Klucel (hydroxypropylcellulose) (HPC)): 103 % of control
- T/C (dose: 100.0 mg/kg/injection, schedule: Q01DX009 (ip), vehicle: Klucel (hydroxypropylcellulose) (HPC)): 103 % of control
- T/C (dose: 200.0 mg/kg/injection, schedule: Q01DX009 (ip), vehicle: Klucel (hydroxypropylcellulose) (HPC)): 105 % of control

SMILES: Cc1nn(C(=O)c2ccncc2)c(C)c1N=Nc1c(C)[nH]n(-c2ccccc2)c1=O
- T/C (dose: 100.0 mg/kg/injection, schedule: Q04DX003 (ip), vehicle: Klucel (hydroxypropylcellulose) (HPC)): 95 % of control
- T/C (dose: 200.0 mg/kg/injection, schedule: Q04DX003 (ip), vehicle: Klucel (hydroxypropylcellulose) (HPC)): 102 % of control
- T/C (dose: 400.0 mg/kg/injection, schedule: Q04DX003 (ip), vehicle: Klucel (hydroxypropylcellulose) (HPC)): 101 % of control
